This passage reports EC50 and inhibition results from patent US10703748B2, “Diazanaphthalen-3-yl carboxamides and preparation and use thereof” (Samumed, LLC, priority 2017, dated 2020).

For experiment [1], the target named is DYRK1A kinase (Homo sapiens, UniProt Q13627). As to the kind of experiment: DYRK1A kinase activity (Ser/Thr 18 peptide Z-lyte FRET assay).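 Also: kinase activity read as coumarin/fluorescein emission ratio after development step, with unphosphorylated and phosphorylated peptide forms setting 0% and 100% controls, values from dose-response curves.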 The format is biochemical. Particulars: recombinant DYRK1A, 30 μM ATP, one hour at room temperature.
For experiment [2], the target named is GSK3β kinase (Homo sapiens, UniProt P49841). As to the kind of experiment: GSK3β kinase activity (Ser/Thr 09 peptide Z-lyte FRET assay). The format is biochemical. Particulars: recombinant kinase, 46 μM ATP, one hour at room temperature; read-out: EC50.
Sequence of GSK3β kinase (P49841 whole entry): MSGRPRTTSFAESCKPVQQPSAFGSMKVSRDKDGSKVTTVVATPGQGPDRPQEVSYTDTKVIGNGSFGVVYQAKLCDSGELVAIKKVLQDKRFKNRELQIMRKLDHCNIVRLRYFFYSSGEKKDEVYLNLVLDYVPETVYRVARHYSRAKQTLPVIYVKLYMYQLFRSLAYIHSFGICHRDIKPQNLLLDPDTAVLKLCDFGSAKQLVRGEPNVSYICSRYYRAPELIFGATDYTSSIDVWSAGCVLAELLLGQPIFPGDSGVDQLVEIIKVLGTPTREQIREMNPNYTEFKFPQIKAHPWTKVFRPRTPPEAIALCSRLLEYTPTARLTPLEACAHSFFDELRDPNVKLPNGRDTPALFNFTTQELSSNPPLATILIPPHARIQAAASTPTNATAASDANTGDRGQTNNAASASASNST
The test system of experiment [3] is secreted cytokines TNFα, IL-6 and KC-GRO. In words: Secreted cytokines in Lipopolysaccharide-stimulated BV-2 cells (Table 9 does not say which cytokine). The format is cell-based, mouse. Particulars: Mus musculus, BV-2, 5 h; read-out: EC50.
The subject of experiment [4] is SW480 colon carcinoma cells. As to the kind of experiment: Cell viability assay (CellTiter-Glo). To be noted: Homo sapiens; for pEC50: SW480, 96 h; for inhibition at 10 µM: SW480, read-out: percent inhibition at 10 μM. Background: In ATP-based viability assays light output follows the ATP content of the culture.
Description: Representative compounds were screened using the assay procedure to assess the effect on cell viability as described below.
SW480 colon carcinoma cells were transduced with a lentiviral vector expressing luciferase with a human Sp5 promoter consisting of a sequence of eight TCF/LEF binding sites. […] These stably transduced SW480 cells were expanded in cell culture and used for all further screening activities. Each compound was dissolved in DMSO as a 10 mM stock and used to prepare compound source plates.
For the Cell Viability Assays, the cells were plated at 2,000 cells/well in 384-well plates with a DMEM medium containing 1% fetal bovine serum, and 1% Penicillin-Streptomycin and incubated for four days hours at 37° C. and 5% CO2. Eight replicates of DMSO-treated cells served as controls and cells treated with compound were performed in duplicate.
After incubation, 10 μL of CellTiter-Glo (Promega) was added to each well allowed to incubate for approximately 12 minutes. This reagent “results in cell lysis and generation of a luminescent signal proportional to the amount of ATP present. The amount of ATP is directly proportional to the number of cells present in culture, in agreement with previous reports. The CellTiter-Glo Assay generates a “glow-type” luminescent signal, produced by the luciferase reaction (Promega.com)”.
Dose-response curves were generated and EC50 concentration values were calculated using non-linear regression curve fit in the GraphPad Prism (San Diego, Calif.) or Dotmatics' Studies Software (Bishops Stortford, UK).
Experiment [5] concerns Wnt-responsive Sp5-Luc reporter in SW480 colon carcinoma cells. In words: Screening assay for Wnt activity (Sp5-Luc reporter gene assay). Particulars: Homo sapiens; for pEC50: SW480; for inhibition at 10 µM: SW480, read-out: percent inhibition at 10 μM. Background: In a reporter assay the amount or activity of a reporter protein is the signal.
Experiment [6] concerns IL-6. In words: IL-6 inhibition in LPS-stimulated human peripheral blood mononuclear cells (HTRF). To be noted: Homo sapiens, PBMC; for pEC50: 22 h; for inhibition at 10 µM: read-out: percentage in parentheses after EC50 >10. (TR-FRET usually uses a lanthanide donor and a delayed reading to cut background.)
The subject of experiment [7] is α-smooth muscle actin (aSMA) positive LL29 cells. In words: Inhibition of the fibrotic process: αSMA staining in TGF-β1 treated LL29 fibroblasts from IPF patients. To be noted: Homo sapiens, Fibroblast; for pEC50: 96 h; for inhibition at 10 µM: read-out: percentage in parentheses after EC50 >10.

Each structure is given as a SMILES string. pEC50: −log10 of the molar value.

Consider `O=C(Nc1ncc2ccc(-c3cncs3)cc2n1)[C@H]1CC[C@H](CN2CC(F)C2)CC1` [Compound 1519, trans-4-((3-fluoroazetidin-1-yl)methyl)-N-(7-(thiazol-5-yl)quinazolin-2-yl)cyclohexane-1-carboxamide], for which the negative logarithm of the EC50 (pEC50) in experiment [1] is 7.96; in experiment [2], 6.11; in experiment [3] it was 7.16; in experiment [4], below 5.00; in experiment [5] it was 5.64; in experiment [6], below 5.00. Further, in experiment [7], the pEC50 is 5.62. For the same compound, the figures for the inhibition at 10 µM in experiment [4] and in experiment [6] were 17.1% and 2.9%, respectively.

Consider `Cc1cn2c(n1)CN(C(=O)Nc1cc3cc(-c4cnco4)cnc3cn1)CC2` [Compound 4615], for which the negative logarithm of the EC50 (pEC50) in experiment [1] was 7.57; in experiment [2], 5.11; in experiment [3], 6.56; in experiment [4], 5.57; in experiment [5], 5.42; in experiment [6], below 5.00. The compound also gave a negative logarithm of the EC50 (pEC50) in experiment [7] below 5.00. Also, the inhibition at 10 µM in experiment [6] came out at 5.8%; in experiment [7], 35.6%.

Regarding `Cn1cncc1-c1cc2cc(NC(=O)c3ccc(F)cc3)ncc2cn1` [Compound 4075, 4-Fluoro-N-(6-(1-methyl-1H-imidazol-5-yl)-2,7-naphthyridin-3-yl) benzamide], the pEC50 is 8.10 in experiment [1]; 6.02 in experiment [2]; at most 5.00 in experiment [3]; below 5.00 in experiment [4]; 5.25 in experiment [5]; below 5.00 in experiment [6]. The negative logarithm of the EC50 (pEC50) in experiment [7] is below 5.00. For the same compound, the results for the inhibition at 10 µM in experiment [4], in experiment [6] and in experiment [7] were 35.4%, 8.1% and 39.2%, respectively.

In the case of `CN1CCC(n2cc(C(=O)Nc3cc4nc(-c5cncc6[nH]ccc56)ccc4cn3)cn2)CC1` [Compound 896, N-(2-(1H-Pyrrolo[2,3-c]pyridin-4-yl)-1,6-naphthyridin-7-yl)-1-(1-methylpiperidin-4-yl)-1H-pyrazole-4-carboxamide], the pEC50 in experiment [1] was 8.30; in experiment [2], below 5.00; in experiment [3], 6.58; in experiment [4] it was 6.96; in experiment [5], 6.92; in experiment [6], 5.77. Besides, the negative logarithm of the EC50 (pEC50) in experiment [7] was 6.47.

`CN1CCC(Oc2cccc(C(=O)Nc3cc4cc(-c5cnco5)ncc4cn3)c2)CC1` [Compound 4218, 3-((1-Methylpiperidin-4-yl)oxy)-N-(6-(oxazol-5-yl)-2,7-naphthyridin-3-yl) benzamide]: the pEC50 in experiment [1] is 7.85; in experiment [2] it was 5.13; in experiment [3], 5.29; in experiment [4], 5.22; in experiment [5] it was below 5.00; in experiment [6], below 5.00. The compound also gave a pEC50 in experiment [7] of 5.53. In addition, the inhibition at 10 µM is 24.9% in experiment [5] and 3.7% in experiment [6].

Take `CN1CCC(n2cc(C(=O)Nc3ncc4ccc(-c5cncc6[nH]ccc56)cc4n3)cn2)CC1` [Compound 1802, N-(7-(1H-Pyrrolo[2,3-c]pyridin-4-yl)quinazolin-2-yl)-1-(1-methylpiperidin-4-yl)-1H-pyrazole-4-carboxamide]: the pEC50 in experiment [1] is 8.15; in experiment [2], below 5.00; in experiment [3], 5.36; in experiment [4], 5.86; in experiment [5], 5.85; in experiment [6], below 5.00. This compound also gave a pEC50 in experiment [7] below 5.00. In addition, the inhibition at 10 µM in experiment [6] was found to be 47.2%; in experiment [7] it was 47.6%.

As to `O=C(Nc1cc2nc(-c3cnco3)ccc2cn1)c1ccc(OC2CCNCC2)cc1` [Compound 4551, N-(2-(Oxazol-5-yl)-1,6-naphthyridin-7-yl)-4-(piperidin-4-yloxy)benzamide], the negative logarithm of the EC50 (pEC50) in experiment [1] was 8.30; in experiment [2], 5.37; in experiment [3], 6.40; in experiment [4], 5.98; in experiment [5] it was 5.99; in experiment [6], 5.52. The same compound gave a pEC50 in experiment [7] of 6.49.

On to `CC(C)OC(=O)N1CCC(n2cc(C(=O)Nc3cc4cc(-c5cnn(C)c5)cnc4cn3)cn2)CC1` [Compound 2954, Isopropyl 4-(4-((3-(1-methyl-1H-pyrazol-4-yl)-1,7-naphthyridin-6-yl)carbamoyl)-1H-pyrazol-1-yl)piperidine-1-carboxylate], for which the negative logarithm of the EC50 (pEC50) in experiment [1] was 7.55; in experiment [2] it was below 5.00; in experiment [3], 6.31; in experiment [4] it was 5.82; in experiment [5], 6.04; in experiment [6] it was below 5.00. Besides, the pEC50 in experiment [7] was 5.48. For the same compound, the inhibition at 10 µM in experiment [6] was 45%.

`CN(C)Cc1ccc(C(=O)Nc2ncc3ccc(-c4cnn(C)c4)cc3n2)cc1` [Compound 1077, 4-((Dimethylamino)methyl)-N-(7-(1-methyl-1H-pyrazol-4-yl)quinazolin-2-yl)benzamide]: the pEC50 in experiment [1] is 7.80; in experiment [2], 5.38; in experiment [3], 6.69; in experiment [4], 5.47; in experiment [5], 5.96; in experiment [6] it was 5.04. In experiment [7], this compound had a pEC50 of 5.41.

Consider `Cn1cc(-c2cnc3cnc(NC(=O)C4CCN(Cc5ncco5)CC4)cc3c2)cn1` [Compound 2816, N-(3-(1-Methyl-1H-pyrazol-4-yl)-1,7-naphthyridin-6-yl)-1-(oxazol-2-ylmethyl)piperidine-4-carboxamide], for which the pEC50 in experiment [1] was 7.62; in experiment [2], 5.28; in experiment [3], 6.35; in experiment [4] it was below 5.00; in experiment [5] it was below 5.00; in experiment [6] it was below 5.00. In addition, the pEC50 in experiment [7] was below 5.00. The inhibition at 10 µM was 23.2% in experiment [4], 15.4% in experiment [5], 2.2% in experiment [6] and 27.3% in experiment [7].

Take `O=C(Nc1cc2cc(-c3cncc(N[C@H]4CCNC[C@@H]4F)n3)cnc2cn1)C1CC1` [Compound 3599, N-(3-(6-(((3S,4S)-3-Fluoropiperidin-4-yl)amino)pyrazin-2-yl)-1,7-naphthyridin-6-yl)cyclopropanecarboxamide]: the negative logarithm of the EC50 (pEC50) in experiment [1] was 8.10; in experiment [2], 6.11; in experiment [3] it was 6.08; in experiment [4] it was 5.05; in experiment [5] it was below 5.00; in experiment [6] it was below 5.00. This compound also had a pEC50 in experiment [7] of 5.52. In addition, the inhibition at 10 µM stood at 41.3% in experiment [5] and 40.1% in experiment [6].

Turning to `Cn1cc(-c2ccc3cnc(NC(=O)c4ccc5ccoc5c4)cc3n2)cn1` [Compound 209, N-(2-(1-Methyl-1H-pyrazol-4-yl)-1,6-naphthyridin-7-yl)benzofuran-6-carboxamide], the pEC50 in experiment [1] is 8.30; in experiment [2], below 5.00; in experiment [3], 6.06; in experiment [4], 5.50; in experiment [5], 6.31; in experiment [6] it was below 5.00. In experiment [7], this compound had a pEC50 of 6.36. Moreover, in experiment [6], the inhibition at 10 µM was determined as 3.1%.

As for `Cn1cncc1-c1ccc2cnc(NC(=O)c3cccc(CN4CCCC4)c3)nc2c1` [Compound 1356, N-(7-(1-Methyl-1H-imidazol-5-yl)quinazolin-2-yl)-3-(pyrrolidin-1-ylmethyl)benzamide], the pEC50 in experiment [1] was 8.30; in experiment [2], 5.56; in experiment [3], 5.96; in experiment [4], 5.07; in experiment [5], 5.59; in experiment [6], 5.09. Moreover, the negative logarithm of the EC50 (pEC50) in experiment [7] was 5.44.

`CN1CCCN(c2cc(C(=O)Nc3ncc4ccc(-c5cn(C)nn5)cc4n3)ccn2)CC1` [Compound 1285, 2-(4-Methyl-1,4-diazepan-1-yl)-N-(7-(1-methyl-1H-1,2,3-triazol-4-yl)quinazolin-2-yl)isonicotinamide]: the negative-log EC50 (pEC50) was 7.89 in experiment [1]; 6.08 in experiment [2]; 5.17 in experiment [3]; 5.50 in experiment [4]; 5.78 in experiment [5]; below 5.00 in experiment [6]. In addition, the pEC50 in experiment [7] was below 5.00. The inhibition at 10 µM in experiment [6] turned out to be 2.1%; in experiment [7], 5.5%.

In the case of `CN1CCN(c2cc(C(=O)Nc3cc4cc(-c5cnn(C)c5N)cnc4cn3)ccn2)CC1` [Compound 3024, N-(3-(5-Amino-1-methyl-1H-pyrazol-4-yl)-1,7-naphthyridin-6-yl)-2-(4-methylpiperazin-1-yl)isonicotinamide], the pEC50 in experiment [1] was 7.77; in experiment [2], below 5.00; in experiment [3], 5.92; in experiment [4] it was 5.47; in experiment [5], 5.58; in experiment [6], below 5.00. Moreover, the pEC50 in experiment [7] is below 5.00. Besides, the inhibition at 10 µM in experiment [6] stood at 11.1%; in experiment [7] it was 50%.

For the compound `CN(C)CCNc1cc(C(=O)Nc2ncc3ccc(-c4cnn(C)c4)cc3n2)ccn1` [Compound 1071, 2-((2-(Dimethylamino)ethyl)amino)-N-(7-(1-methyl-1H-pyrazol-4-yl)quinazolin-2-yl)isonicotinamide], the pEC50 in experiment [1] was 8.00; in experiment [2] it was below 5.00; in experiment [3], 5.74; in experiment [4], 5.46; in experiment [5], 5.82; in experiment [6] it was below 5.00. The same compound had a pEC50 in experiment [7] of 5.16. Besides, the inhibition at 10 µM in experiment [6] came to 11.8%.

Broadly, the pEC50 is −log10 of the EC50, conventionally taken in molar units.
